Earlier results in patent US20220313684A1, “PHARMACEUTICAL COMPOSITION COMPRISING IRINOTECAN FREE BASE FOR ORAL ADMINISTRATION” (DAE HWA PHARMA. CO., LTD., priority 2019, published 2022).

Settings: oral administration of irinotecan; reported (EP 2328557)

For CCc1c2c(nc3ccc(OC(=O)N4CCC(N5CCCCC5)CC4)cc13)-c1cc3c(c(=O)n1C2)COC(=O)[C@]3(O)CC [irinotecan, (S)-4,11-diethyl-3,4,12,14-tetrahydro-4-hydroxy-3,14-dioxo-1H-pyrano[3′,4′:6,7]-indolizino[1,2-b]quinolin-9-yl [1,4′bipiperidine]-1′-carboxylate], the “bioavailability upon oral administration” value is given as 9%.
